Laboratory results taken from PubChem BioAssay AID1745844 (Carcinogenic Potency Database (CPDB), 2022).
Activity calls are given as the source filed them. How the calls were made is not given here.

Test system: rodent lifetime carcinogenesis bioassay, tumor incidence TD50
Experiment: carcinogenic potency in animals, long-term in vivo studies, CPDB compilation (AID 1745844)

`CCCCN(N=O)C(N)=O` gave a TD50 (rat, strain F344/DuCrj, females, in drinking water, site: all sites, lesion: several types, types named in the paper, dosed 50 weeks, study length 50 weeks) of 24.7 mg/kg/day, a TD50 (rat, strain F344/DuCrj, females, in drinking water, site: digestive tract, lesion: several types, types named in the paper, dosed 50 weeks, study length 50 weeks) of 1.3 mg/kg/day and a TD50 (rat, strain F344/DuCrj, females, in drinking water, site: ear duct, lesion: several types, types named in the paper, dosed 50 weeks, study length 50 weeks) of 11.6 mg/kg/day. It also gave a TD50 (rat, strain F344/DuCrj, females, in drinking water, site: ear duct, lesion: squamous-cell carcinoma, sebaceous, dosed 50 weeks, study length 50 weeks) of 19.4 mg/kg/day, a TD50 (rat, strain F344/DuCrj, females, in drinking water, site: esophagus, lesion: papilloma, dosed 50 weeks, study length 50 weeks) of 6.58 mg/kg/day and a TD50 (rat, strain F344/DuCrj, females, in drinking water, site: esophagus, lesion: several types, types named in the paper, dosed 50 weeks, study length 50 weeks) of 3.21 mg/kg/day. It also gave a TD50 (rat, strain F344/DuCrj, females, in drinking water, site: esophagus, lesion: squamous-cell carcinoma, dosed 50 weeks, study length 50 weeks) of 8.05 mg/kg/day, a TD50 (rat, strain F344/DuCrj, females, in drinking water, site: forestomach, lesion: papilloma, dosed 50 weeks, study length 50 weeks) of 4 mg/kg/day and a TD50 (rat, strain F344/DuCrj, females, in drinking water, site: forestomach, lesion: several types, types named in the paper, dosed 50 weeks, study length 50 weeks) of 2.43 mg/kg/day. It also gave a TD50 (rat, strain F344/DuCrj, females, in drinking water, site: forestomach, lesion: squamous-cell carcinoma, dosed 50 weeks, study length 50 weeks) of 10.2 mg/kg/day, a TD50 (rat, strain F344/DuCrj, females, in drinking water, site: pharynx, lesion: several types, types named in the paper, dosed 50 weeks, study length 50 weeks) of 8.05 mg/kg/day and a TD50 (rat, strain F344/DuCrj, females, in drinking water, site: pharynx, lesion: squamous-cell carcinoma, dosed 50 weeks, study length 50 weeks) of 10.2 mg/kg/day. It also gave a TD50 (rat, strain F344/DuCrj, females, in drinking water, site: tongue, lesion: papilloma, dosed 50 weeks, study length 50 weeks) of 13.5 mg/kg/day, a TD50 (rat, strain F344/DuCrj, females, in drinking water, site: tongue, lesion: several types, types named in the paper, dosed 50 weeks, study length 50 weeks) of 10.2 mg/kg/day and a TD50 (rat, strain F344/DuCrj, females, in drinking water, site: vagina, lesion: papilloma, dosed 50 weeks, study length 50 weeks) of 6 mg/kg/day. For the same compound, the TD50 (rat, strain F344/DuCrj, females, in drinking water, site: vagina, lesion: several types, types named in the paper, dosed 50 weeks, study length 50 weeks) was 5.05 mg/kg/day, the TD50 (rat, strain F344/DuCrj, males, in drinking water, site: all sites, lesion: several types, types named in the paper, dosed 50 weeks, study length 50 weeks) was 10.2 mg/kg/day and the TD50 (rat, strain F344/DuCrj, males, in drinking water, site: digestive tract, lesion: several types, types named in the paper, dosed 50 weeks, study length 50 weeks) was 0.91 mg/kg/day. It also gave a TD50 (rat, strain F344/DuCrj, males, in drinking water, site: duodenum, lesion: several types, types named in the paper, dosed 50 weeks, study length 50 weeks) of 11.8 mg/kg/day, a TD50 (rat, strain F344/DuCrj, males, in drinking water, site: ear duct, lesion: several types, types named in the paper, dosed 50 weeks, study length 50 weeks) of 11.8 mg/kg/day and a TD50 (rat, strain F344/DuCrj, males, in drinking water, site: esophagus, lesion: papilloma, dosed 50 weeks, study length 50 weeks) of 4.08 mg/kg/day. It also gave a TD50 (rat, strain F344/DuCrj, males, in drinking water, site: esophagus, lesion: several types, types named in the paper, dosed 50 weeks, study length 50 weeks) of 3.02 mg/kg/day, a TD50 (rat, strain F344/DuCrj, males, in drinking water, site: esophagus, lesion: squamous-cell carcinoma, dosed 50 weeks, study length 50 weeks) of 17 mg/kg/day and a TD50 (rat, strain F344/DuCrj, males, in drinking water, site: forestomach, lesion: papilloma, dosed 50 weeks, study length 50 weeks) of 3.25 mg/kg/day. The TD50 (rat, strain F344/DuCrj, males, in drinking water, site: forestomach, lesion: several types, types named in the paper, dosed 50 weeks, study length 50 weeks) was 2.62 mg/kg/day, the TD50 (rat, strain F344/DuCrj, males, in drinking water, site: palate, soft, lesion: several types, types named in the paper, dosed 50 weeks, study length 50 weeks) was 11.8 mg/kg/day and the TD50 (rat, strain F344/DuCrj, males, in drinking water, site: palate, soft, lesion: squamous-cell carcinoma, dosed 50 weeks, study length 50 weeks) was 17 mg/kg/day. For the same compound, the TD50 (rat, strain Fischer 344, females, by gavage, site: colon, lesion: one or several types, types not named, dosed 40 weeks, study length 104 weeks) was 2.31 mg/kg/day, the TD50 (rat, strain Fischer 344, females, by gavage, site: forestomach, lesion: one or several types, types not named, dosed 40 weeks, study length 104 weeks) was 0.267 mg/kg/day and the TD50 (rat, strain Fischer 344, females, by gavage, site: lung, lesion: several types, types named in the paper, dosed 40 weeks, study length 104 weeks) was 0.277 mg/kg/day. It also gave a TD50 (rat, strain Fischer 344, females, by gavage, site: mammary gland, lesion: adenocarcinoma, dosed 40 weeks, study length 104 weeks) of 0.758 mg/kg/day, a TD50 (rat, strain Fischer 344, females, by gavage, site: uterus, lesion: several types, types named in the paper, dosed 40 weeks, study length 104 weeks) of 0.551 mg/kg/day and a TD50 (rat, strain Fischer 344, males, by gavage, site: colon, lesion: one or several types, types not named, dosed 40 weeks, study length 104 weeks) of 1.61 mg/kg/day. It also gave a TD50 (rat, strain Fischer 344, males, by gavage, site: forestomach, lesion: one or several types, types not named, dosed 40 weeks, study length 104 weeks) of 0.259 mg/kg/day, a TD50 (rat, strain Fischer 344, males, by gavage, site: lung, lesion: several types, types named in the paper, dosed 40 weeks, study length 104 weeks) of 0.187 mg/kg/day and a TD50 (rat, strain MRC-Wistar, females, in drinking water, site: all sites, lesion: myelocytic leukemia, dosed 39 weeks, study length 85 weeks) of 3.27 mg/kg/day. The TD50 (rat, strain MRC-Wistar, females, in drinking water, site: any site (literature study), lesion: one or several types, types not named, dosed 39 weeks, study length 85 weeks) was 1.02 mg/kg/day, the TD50 (rat, strain MRC-Wistar, females, in drinking water, site: liver, lesion: one or several types, types not named, dosed 39 weeks, study length 85 weeks) was 6.63 mg/kg/day and the TD50 (rat, strain MRC-Wistar, females, in drinking water, site: mammary gland, lesion: one or several types, types not named, dosed 39 weeks, study length 85 weeks) was 6.63 mg/kg/day (inactive). The TD50 (rat, strain MRC-Wistar, males, in drinking water, site: all sites, lesion: myelocytic leukemia, dosed 39 weeks, study length 85 weeks) was 2.86 mg/kg/day, the TD50 (rat, strain MRC-Wistar, males, in drinking water, site: any site (literature study), lesion: one or several types, types not named, dosed 39 weeks, study length 85 weeks) was 1.64 mg/kg/day and the TD50 (rat, strain MRC-Wistar, males, in drinking water, site: liver, lesion: one or several types, types not named, dosed 39 weeks, study length 85 weeks) was 26.1 mg/kg/day.

With `c1ccc2sc(SNC3CCCCC3)nc2c1` the carcinogen call (mouse, strain B6AKF1, females, oral dosing, site: any site (literature study), lesion: several types, types named in the paper, dosed 76 weeks, study length 76 weeks) was “negative (inactive)”, the carcinogen call (mouse, strain B6AKF1, females, oral dosing, site: liver, lesion: hepatoma, dosed 76 weeks, study length 76 weeks) was “negative (inactive)” and the carcinogen call (mouse, strain B6AKF1, females, oral dosing, site: lung, lesion: adenoma, dosed 76 weeks, study length 76 weeks) was “negative (inactive)”. The carcinogen call (mouse, strain B6AKF1, males, oral dosing, site: any site (literature study), lesion: several types, types named in the paper, dosed 76 weeks, study length 76 weeks) was “negative (inactive)”, the carcinogen call (mouse, strain B6AKF1, males, oral dosing, site: liver, lesion: hepatoma, dosed 76 weeks, study length 76 weeks) was “negative (inactive)” and the carcinogen call (mouse, strain B6AKF1, males, oral dosing, site: lung, lesion: adenoma, dosed 76 weeks, study length 76 weeks) was “negative (inactive)”. The TD50 (mouse, strain B6C3F1, females, oral dosing, site: any site (literature study), lesion: several types, types named in the paper, dosed 76 weeks, study length 76 weeks) was 243 mg/kg/day (inactive), the carcinogen call (mouse, strain B6C3F1, females, oral dosing, site: liver, lesion: hepatoma, dosed 76 weeks, study length 76 weeks) was “negative (inactive)” and the carcinogen call (mouse, strain B6C3F1, females, oral dosing, site: lung, lesion: several types, types named in the paper, dosed 76 weeks, study length 76 weeks) was “negative (inactive)”. For the same compound, the TD50 (mouse, strain B6C3F1, males, oral dosing, site: any site (literature study), lesion: several types, types named in the paper, dosed 76 weeks, study length 76 weeks) was 50.8 mg/kg/day (inactive), the TD50 (mouse, strain B6C3F1, males, oral dosing, site: liver, lesion: hepatoma, dosed 76 weeks, study length 76 weeks) was 92.7 mg/kg/day (inactive) and the TD50 (mouse, strain B6C3F1, males, oral dosing, site: lung, lesion: adenoma, dosed 76 weeks, study length 76 weeks) was 532 mg/kg/day (inactive).

`CC(CCl)OC(C)CCl` (stereo not drawn) was tested, and the TD50 (mouse, strain B6C3F1, females, by gavage, site: any site (literature study), lesion: several types, types named in the paper, dosed 103 weeks, study length 106 weeks) was 231 mg/kg/day, the TD50 (mouse, strain B6C3F1, females, by gavage, site: lung, lesion: alveolar/bronchiolar adenoma + alveolar/bronchiolar carcinoma, dosed 103 weeks, study length 106 weeks) was 311 mg/kg/day and the TD50 (mouse, strain B6C3F1, females, by gavage, site: lung, lesion: alveolar/bronchiolar adenoma, dosed 103 weeks, study length 106 weeks) was 381 mg/kg/day. It also gave a TD50 (mouse, strain B6C3F1, females, by gavage, site: stomach, lesion: squamous-cell carcinoma + squamous-cell papilloma, dosed 103 weeks, study length 106 weeks) of 1650 mg/kg/day, a TD50 (mouse, strain B6C3F1, males, by gavage, site: any site (literature study), lesion: several types, types named in the paper, dosed 103 weeks, study length 105 weeks) of 116 mg/kg/day and a TD50 (mouse, strain B6C3F1, males, by gavage, site: liver, lesion: hepatocellular adenoma + hepatocellular carcinoma + neoplastic nodule, dosed 103 weeks, study length 105 weeks) of 138 mg/kg/day. It also gave a TD50 (mouse, strain B6C3F1, males, by gavage, site: liver, lesion: hepatocellular adenoma + hepatocellular carcinoma, dosed 103 weeks, study length 105 weeks) of 138 mg/kg/day, a TD50 (mouse, strain B6C3F1, males, by gavage, site: liver, lesion: hepatocellular carcinoma, dosed 103 weeks, study length 105 weeks) of 229 mg/kg/day and a TD50 (mouse, strain B6C3F1, males, by gavage, site: lung, lesion: alveolar/bronchiolar adenoma + alveolar/bronchiolar carcinoma, dosed 103 weeks, study length 105 weeks) of 259 mg/kg/day. For the same compound, the TD50 (mouse, strain B6C3F1, males, by gavage, site: lung, lesion: alveolar/bronchiolar adenoma, dosed 103 weeks, study length 105 weeks) was 306 mg/kg/day, the TD50 (rat, strain Fischer 344, females, by gavage, site: any site (literature study), lesion: several types, types named in the paper, dosed 103 weeks, study length 105 weeks) was 65.6 mg/kg/day (inactive) and the TD50 (rat, strain Fischer 344, males, by gavage, site: any site (literature study), lesion: several types, types named in the paper, dosed 103 weeks, study length 104 weeks) was 101 mg/kg/day (inactive).

With `CCNC(=O)N(CCO)N=O` the TD50 (rat, strain Fischer 344, females, in drinking water, site: mammary tissue, wider than the gland, lesion: carcinoma, dosed 30 weeks, study length 104 weeks) was 0.501 mg/kg/day, the TD50 (rat, strain Fischer 344, males, in drinking water, site: liver, lesion: one or several types, types not named, dosed 30 weeks, study length 104 weeks) was 1.09 mg/kg/day and the TD50 (rat, strain Fischer 344, males, in drinking water, site: lung, lesion: one or several types, types not named, dosed 30 weeks, study length 104 weeks) was 0.446 mg/kg/day. The TD50 (rat, strain Fischer 344, males, in drinking water, site: nervous system, lesion: one or several types, types not named, dosed 30 weeks, study length 104 weeks) was 0.754 mg/kg/day, the TD50 (rat, strain Fischer 344, males, in drinking water, site: skin, lesion: one or several types, types not named, dosed 30 weeks, study length 104 weeks) was 0.641 mg/kg/day and the TD50 (rat, strain Fischer 344, males, in drinking water, site: tunica vaginalis, lesion: mesothelioma, dosed 30 weeks, study length 104 weeks) was 0.576 mg/kg/day.

For `NC(=O)CCCCn1ccc(NC(N)=NCC(F)(F)F)n1`, the TD50 (mouse, strain B6C3F1, females, in feed, site: gastric mucosa, lesion: carcinoid tumor, malignant, dosed 91 weeks, study length 91 weeks) was 956 mg/kg/day, the TD50 (mouse, strain B6C3F1, males, in feed, site: gastric mucosa, lesion: carcinoid tumor, malignant, dosed 91 weeks, study length 91 weeks) was 401 mg/kg/day and the TD50 (rat, strain Sprague-Dawley, females, in feed, site: gastric mucosa, lesion: carcinoid tumor, malignant, dosed 104 weeks, study length 104 weeks) was 1350 mg/kg/day. The TD50 (rat, strain Sprague-Dawley, males, in feed, site: gastric mucosa, lesion: carcinoid tumor, malignant, dosed 104 weeks, study length 104 weeks) was 1030 mg/kg/day.

`O=S1(=O)N=C(O)c2ccccc21` was tested, and the carcinogen call (rat, strain Fischer 344, males, in feed, site: forestomach, lesion: papilloma, dosed 72 weeks, study length 73 weeks) was “negative (inactive)” and the carcinogen call (rat, strain Fischer 344, males, in feed, site: urinary bladder, lesion: carcinoma, dosed 72 weeks, study length 73 weeks) was “negative (inactive)”.
